Results published in patent publication US20220395553A1, “CXCR4 ANTAGONIST PEPTIDES” (COHBAR, INC., priority 2019, published 2022).
Square brackets hold non-standard residues; d marks the D form. Peptide text beside a SMILES is read from it.

How the values were obtained:
human CXCR4 [1] = target: T1, human CXCR4 (Homo sapiens, UniProt P61073); assay: IC50 for inhibition of CXCR4 activation, β-Arrestin recruitment (Example 22); type: cell-based; set-up: host or cells: C2C12 (mouse myoblast) CXCR4 β-Arrestin PathHunter cell line
Procedure: The assay was run with the DiscoverX protocol. β-Arrestin recruitment assays were performed by Eurofins-DiscoverX (Fremont, Calif.) using C2C12 CXCR4 β-Arrestin cell line (co-expressing ProLink tagged human CXCR4 and Enzyme Acceptor tagged β-Arrestin) and PathHunter detection kit. Peptides were initially prepared as 1 mM stock in H2O and tested in ten (10)-step concentration response curves using 3-fold dilution steps with 1 μM as highest concentration; a concentration range of 1 μM-0.05 nM was tested. C2C12 CXCR4 β-Arrestin cells were seed onto 384-well plates in standard medium. […] At the end of the 90 min incubation period, β-Arrestin recruitment in response to various treatments was quantified using a chemiluminescent complementation reporter assay to measure association of tagged human […] (ProLink tag) and tagged β-Arrestin (Enzyme Acceptor tag).

[2] = tested on: CXCR4/CXCL12 induced p-MEK; assay: CXCR4/CXCL12 induced p-MEK in Jurkat cells (ELISA); type: cell-based, human; details: 5 nM CXCL12, 5 min
Procedure: The assay was performed following a protocol similar to that described by Peng, et al., Mol Cancer Ther., 14 480-90 (2015), incorporated herein by reference. […] Jurkat cells were resuspended in standard growth media (RPMI+GlutaMax media; Gibco/Thermo Fisher Scientific; Gaithersburg, Md.) containing 10% FBS and 1% penicillin/streptomycin. Assays were performed using fresh or conditioned media (media cultured overnight in presence of Jurkat cells) to resuspend cells at density of 2×10^6 cells/ml and […] of cell suspension was immediately placed in 1.7 ml microfuge tubes. […] Following the 5 min incubation, cells were centrifuged at 1000×g for 4 min at 4° C. The supernatant was removed and the cells were rinsed with 1 ml of HBSS containing calcium and magnesium. The HBSS was removed and the cells were immediately lysed in 150 l of lysis buffer included with Phospho-MEK1 (Ser217/221) Sandwich ELISA kit (Cell Signaling Technology; Danvers, Mass.); lysis buffer was supplemented with 1 m M PMSF (Millipore-Sigma; Saint Louis, Mo.) and Halt protease/phosphatase inhibitor cocktail (Thermo-Fisher; Waltham, Mass.) prior to use. The samples were then placed on ice for 10 min and vortexed periodically. Following the lysis step, the samples were centrifuged at 12,500 rpm for 10 min at 4° C. p-MEK expression in each of the samples was then measure using Phospho-MEK1 (Ser217/221) Sandwich ELISA kit according to manufacturer's instructions. Absorbance was measured using a Cytation 3 plate reader at […] (BioTek; Winooski, Vt.).

human CXCR4 [3] = target: T1, human CXCR4; assay: CXCR4/CXCL12 binding, HTRF format, single concentration (Example 23); set-up: host or cells: HEK293 (Tag-lite CXCR4 cells, frozen aliquots, transient expression); details: 15 nM CXCR4R fluorescent probe, 3 hours, HEK293 Tag-lite CXCR4 cells
Procedure, shortened: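 Tag-lite CXCR4 cells were exposed to peptide at 400 nM final with 15 nM (EC80) fluorescent CXCR4 probe for 3 h at room temperature. HTRF was read, and the 665/620 nm ratio ×10,000 measured probe bound to terbium-labelled receptor.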

T1 sequence (P61073 whole entry): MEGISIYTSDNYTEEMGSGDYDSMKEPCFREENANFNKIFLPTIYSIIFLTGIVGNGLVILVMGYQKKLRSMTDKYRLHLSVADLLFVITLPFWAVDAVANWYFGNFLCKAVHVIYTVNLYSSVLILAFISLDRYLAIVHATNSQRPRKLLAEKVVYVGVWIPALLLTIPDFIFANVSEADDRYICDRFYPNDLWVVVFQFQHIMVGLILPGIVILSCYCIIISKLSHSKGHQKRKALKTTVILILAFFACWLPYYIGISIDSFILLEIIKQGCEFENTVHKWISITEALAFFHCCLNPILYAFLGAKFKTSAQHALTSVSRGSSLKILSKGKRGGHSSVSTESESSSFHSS

| Compound | IC50 (human CXCR4 [1]) | Percent Inhibition of CXCR4/CXCL12 Binding (400 nM peptide) (human CXCR4 [3]) | Percent Inhibition of CXCR4/CXCL12 Induced p-MEK (100 nM Test Article) [2] | Percent Inhibition of CXCR4/CXCL12 Induced p-MEK (1 μM Test Article) [2] |
| --- | --- | --- | --- | --- |
| CC(C)C[C@H](NC(=O)[C@H](CO)NC(=O)[C@H](CO)NC(=O)[C@H](CCCNC(=N)N)NC(=O)[C@@H](NC(=O)[C@H](CO)NC(=O)[C@H](Cc1c[nH]cn1)NC(=O)[C@H](Cc1c[nH]cn1)NC(=O)[C@H](Cc1ccc(O)cc1)NC(=O)[C@H](CCCNC(=N)N)NC(=O)[C@H](CCC(=O)O)NC(=O)[C@@H](C)N)C(C)C)C(=O)N[C@@H](CCCNC(=N)N)C(=O)N1CCC[C@H]1C(=O)N[C@@H](Cc1ccc(O)cc1)C(=O)N[C@H](C(=O)N[C@@H](CCCCN)C(=O)O)[C@@H](C)O [compound 34] (H-[dA]ERYHHSVRSSLRPYTK-OH; N-terminus and C-terminus assumed) | > 1000 nM | −17% | −1% | 2% |
| CC(C)C[C@H](NC(=O)[C@H](CO)NC(=O)[C@H](CO)NC(=O)[C@H](CCCNC(=N)N)NC(=O)[C@@H](C)NC(=O)[C@@H](NC(=O)[C@H](Cc1c[nH]cn1)NC(=O)[C@H](Cc1c[nH]cn1)NC(=O)[C@H](Cc1ccc(O)cc1)NC(=O)[C@H](CCCNC(=N)N)NC(=O)[C@H](CCC(=O)O)NC(=O)[C@@H](N)CC(C)C)[C@@H](C)O)C(=O)N[C@@H](CCCNC(=N)N)C(=O)N1CCC[C@H]1C(=O)N[C@@H](Cc1ccc(O)cc1)C(=O)N[C@H](C(=O)N[C@@H](CCCCN)C(=O)O)[C@@H](C)O [compound 40] (H-LERYHHT[dA]RSSLRPYTK-OH; N-terminus and C-terminus assumed) | 5 nM | 76% | 33% | 94% |
| CC(C)C[C@H](NC(=O)[C@H](CO)NC(=O)[C@H](CO)NC(=O)[C@H](CCCNC(=N)N)NC(=O)[C@@H](NC(=O)[C@H](CO)NC(=O)[C@H](Cc1c[nH]cn1)NC(=O)[C@H](Cc1c[nH]cn1)NC(=O)[C@H](Cc1ccc(O)cc1)NC(=O)[C@H](CCCNC(=N)N)NC(=O)[C@H](CCCNC(=N)N)NC(=O)[C@@H](N)CC(C)C)C(C)C)C(=O)N[C@@H](CCCNC(=N)N)C(=O)N1CCC[C@H]1C(=O)N[C@@H](Cc1ccccc1)C(=O)N[C@H](C(=O)N[C@@H](CCCCN)C(=O)O)[C@@H](C)O [compound 59] (H-LRRYHHSVRSSLRPFTK-OH; N-terminus and C-terminus assumed) | 3 nM | −3% | 43% | 93% |
| CC(C)C[C@H](NC(=O)[C@H](CO)NC(=O)[C@H](CO)NC(=O)[C@H](CCC(=O)O)NC(=O)[C@@H](C)NC(=O)[C@H](CO)NC(=O)[C@H](Cc1c[nH]cn1)NC(=O)[C@H](Cc1c[nH]cn1)NC(=O)[C@H](Cc1ccc(O)cc1)NC(=O)[C@H](CCCNC(=N)N)NC(=O)[C@H](CCCNC(=N)N)NC(=O)[C@@H](N)CC(C)C)C(=O)N[C@@H](CCCNC(=N)N)C(=O)N1CCC[C@H]1C(=O)N[C@@H](Cc1ccc(O)cc1)C(=O)N[C@H](C(=O)N[C@@H](CCCCN)C(=O)O)[C@@H](C)O [compound 64] (H-LRRYHHS[dA]ESSLRPYTK-OH; N-terminus and C-terminus assumed) | 14 nM | −6% |  |  |

Now from value to compound, other results behind:

| IC50 (human CXCR4 [1]) | Percent Inhibition of CXCR4/CXCL12 Binding (400 nM peptide) (human CXCR4 [3]) | Compound | Percent Inhibition of CXCR4/CXCL12 Induced p-MEK (100 nM Test Article) [2] | Percent Inhibition of CXCR4/CXCL12 Induced p-MEK (1 μM Test Article) [2] |
| --- | --- | --- | --- | --- |
| 7 nM | 77% | CC(C)C[C@H](NC(=O)[C@H](CO)NC(=O)[C@H](CO)NC(=O)[C@H](CCCNC(=N)N)NC(=O)[C@@H](NC(=O)[C@H](CO)NC(=O)[C@H](Cc1c[nH]cn1)NC(=O)[C@H](Cc1c[nH]cn1)NC(=O)[C@H](Cc1ccc(O)cc1)NC(=O)[C@H](CCCNC(=N)N)NC(=O)[C@H](CCCNC(=N)N)NC(=O)[C@@H](C)N)C(C)C)C(=O)N[C@@H](CCCNC(=N)N)C(=O)N1CCC[C@H]1C(=O)N[C@@H](Cc1ccc(O)cc1)C(=O)N[C@H](C(=O)N[C@@H](CCCCN)C(=O)O)[C@@H](C)O [compound 33] (H-[dA]RRYHHSVRSSLRPYTK-OH; N-terminus and C-terminus assumed) | 7% | 42% |
| > 1000 nM | −11% | CC(C)C[C@H](NC(=O)[C@H](CO)NC(=O)[C@H](CO)NC(=O)[C@H](CCCNC(=N)N)NC(=O)[C@@H](NC(=O)[C@H](CO)NC(=O)[C@H](Cc1c[nH]cn1)NC(=O)[C@H](Cc1c[nH]cn1)NC(=O)[C@H](Cc1ccc(O)cc1)NC(=O)[C@H](CC(=O)O)NC(=O)[C@H](CCCNC(=N)N)NC(=O)[C@@H](N)CC(C)C)C(C)C)C(=O)N[C@@H](CCCNC(=N)N)C(=O)N1CCC[C@H]1C(=O)N[C@@H](Cc1ccc(O)cc1)C(=O)N[C@H](C(=O)N[C@@H](CCCCN)C(=O)O)[C@@H](C)O [compound 36] (H-LRDYHHSVRSSLRPYTK-OH; N-terminus and C-terminus assumed) | 22% | −5% |
| 14 nM | 53% | CC(C)C[C@H](NC(=O)[C@H](CO)NC(=O)[C@H](CO)NC(=O)[C@H](CCCNC(=N)N)NC(=O)[C@@H](C)NC(=O)[C@H](CO)NC(=O)[C@H](Cc1c[nH]cn1)NC(=O)[C@H](CC(N)=O)NC(=O)[C@H](Cc1ccc(O)cc1)NC(=O)[C@H](CCCNC(=N)N)NC(=O)[C@H](CCC(=O)O)NC(=O)[C@@H](N)CC(C)C)C(=O)N[C@@H](CCCNC(=N)N)C(=O)N1CCC[C@H]1C(=O)N[C@@H](Cc1ccc(O)cc1)C(=O)N[C@H](C(=O)N[C@@H](CCCCN)C(=O)O)[C@@H](C)O [compound 43] (H-LERYNHS[dA]RSSLRPYTK-OH; N-terminus and C-terminus assumed) | 5% | 40% |
| 121 nM | −2% | CC(C)C[C@H](NC(=O)[C@H](CO)NC(=O)[C@H](CO)NC(=O)[C@H](CCCNC(=N)N)NC(=O)[C@@H](C)NC(=O)[C@H](CO)NC(=O)[C@H](CCC(N)=O)NC(=O)[C@H](Cc1c[nH]cn1)NC(=O)[C@H](Cc1ccc(O)cc1)NC(=O)[C@H](CCCNC(=N)N)NC(=O)[C@H](CCC(=O)O)NC(=O)[C@@H](N)CC(C)C)C(=O)N[C@@H](CCCNC(=N)N)C(=O)N1CCC[C@H]1C(=O)N[C@@H](Cc1ccc(O)cc1)C(=O)N[C@H](C(=O)N[C@@H](CCCCN)C(=O)O)[C@@H](C)O [compound 52] (H-LERYHQS[dA]RSSLRPYTK-OH; N-terminus and C-terminus assumed) |  |  |
| 4 nM | 56% | CC(C)C[C@H](NC(=O)[C@H](CO)NC(=O)[C@H](CO)NC(=O)[C@H](CCCNC(=N)N)NC(=O)[C@@H](C)NC(=O)[C@H](CO)NC(=O)[C@H](Cc1c[nH]cn1)NC(=O)[C@H](Cc1c[nH]cn1)NC(=O)[C@H](Cc1ccccc1)NC(=O)[C@H](CCCNC(=N)N)NC(=O)[C@H](CCC(=O)O)NC(=O)[C@@H](N)CC(C)C)C(=O)N[C@@H](CCCNC(=N)N)C(=O)N1CCC[C@H]1C(=O)N[C@@H](Cc1ccc(O)cc1)C(=O)N[C@H](C(=O)N[C@@H](CCCCN)C(=O)O)[C@@H](C)O [compound 55] (H-LERFHHS[dA]RSSLRPYTK-OH; N-terminus and C-terminus assumed) | 16% | 72% |
| 14 nM | 9% | CC(C)C[C@H](NC(=O)[C@H](CO)NC(=O)[C@H](CO)NC(=O)[C@H](CCCNC(=N)N)NC(=O)[C@@H](NC(=O)[C@H](CO)NC(=O)[C@H](Cc1c[nH]cn1)NC(=O)[C@H](Cc1c[nH]cn1)NC(=O)[C@H](Cc1ccc(O)cc1)NC(=O)[C@H](CCCNC(=N)N)NC(=O)[C@H](CCCNC(=N)N)NC(=O)[C@@H](N)CC(C)C)C(C)C)C(=O)N[C@@H](CCC(=O)O)C(=O)N1CCC[C@H]1C(=O)N[C@@H](Cc1ccc(O)cc1)C(=O)N[C@H](C(=O)N[C@@H](CCCCN)C(=O)O)[C@@H](C)O [compound 63] (H-LRRYHHSVRSSLEPYTK-OH; N-terminus and C-terminus assumed) |  |  |
